Assay results taken from PubChem BioAssay (NCI).
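Test compounds were applied to cells in 96-well plates for 48 hours at 5 doses. Definition used: TGI = concentration required for complete inhibition of growth.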

Legend:
Assay in all cases: NCI tumour cell line growth inhibition, 48 h
UO-31 renal = system: UO-31 renal
SW-620 colon = system: SW-620 colon
SNB-78 CNS = system: SNB-78 CNS
K-562 leukemia = system: K-562 leukemia
HOP-92 NSCLC = system: HOP-92 NSCLC
NCI-H522 lung = system: NCI-H522 lung
SK-MEL-5 melanoma = system: SK-MEL-5 melanoma
UACC-257 melanoma = system: UACC-257 melanoma
UACC-62 melanoma = system: UACC-62 melanoma
M19-MEL melanoma = system: M19-MEL melanoma
SF-295 CNS = system: SF-295 CNS
786-0 renal = system: 786-0 renal
HT29 colon = system: HT29 colon
LOX IMVI melanoma = system: LOX IMVI melanoma
HCT-15 colon = system: HCT-15 colon
COLO 205 colon = system: COLO 205 colon
ACHN renal = system: ACHN renal
U251 CNS = system: U251 CNS
M14 melanoma = system: M14 melanoma
DMS 273 small cell lung = system: DMS 273 small cell lung
LXFL 529 NSCLC = system: LXFL 529 NSCLC
RPMI-8226 leukemia = system: RPMI-8226 leukemia
SK-OV-3 ovarian = system: SK-OV-3 ovarian
OVCAR-8 ovarian = system: OVCAR-8 ovarian
SK-MEL-28 melanoma = system: SK-MEL-28 melanoma
OVCAR-3 ovarian = system: OVCAR-3 ovarian
MOLT-4 leukemia = system: MOLT-4 leukemia
DLD-1 colon = system: DLD-1 colon
OVCAR-5 ovarian = system: OVCAR-5 ovarian
HCC-2998 colon = system: HCC-2998 colon
HOP-62 NSCLC = system: HOP-62 NSCLC
EKVX NSCLC = system: EKVX NSCLC
IGROV1 ovarian = system: IGROV1 ovarian
MALME-3M melanoma = system: MALME-3M melanoma
SN12C renal = system: SN12C renal
DMS 114 small cell lung = system: DMS 114 small cell lung
HL-60(TB) leukemia = system: HL-60(TB) leukemia
HOP-18 NSCLC = system: HOP-18 NSCLC
NCI-H460 lung = system: NCI-H460 lung
RXF 393 renal = system: RXF 393 renal
NCI-H23 lung = system: NCI-H23 lung
KM20L2 colon = system: KM20L2 colon
NCI-H226 lung = system: NCI-H226 lung
OVCAR-4 ovarian = system: OVCAR-4 ovarian
A549 NSCLC = system: A549 NSCLC
SF-268 CNS = system: SF-268 CNS
SR leukemia = system: SR leukemia
A498 renal = system: A498 renal
CCRF-CEM leukemia = system: CCRF-CEM leukemia
SNB-19 CNS = system: SNB-19 CNS
TK-10 renal = system: TK-10 renal
KM12 colon = system: KM12 colon
SNB-75 CNS = system: SNB-75 CNS
HCT-116 colon = system: HCT-116 colon
CAKI-1 renal = system: CAKI-1 renal
SK-MEL-2 melanoma = system: SK-MEL-2 melanoma
XF 498 CNS = system: XF 498 CNS
SF-539 CNS = system: SF-539 CNS
RXF-631 renal = system: RXF-631 renal
MDA-MB-435 = system: MDA-MB-435
MDA-N = system: MDA-N
PC-3 prostate = system: PC-3 prostate
DU-145 prostate = system: DU-145 prostate
MCF7 breast = system: MCF7 breast
T-47D breast = system: T-47D breast
MDA-MB-231 breast = system: MDA-MB-231 breast
NCI/ADR-RES ovarian = system: NCI/ADR-RES ovarian
HS 578T breast = system: HS 578T breast
BT-549 breast = system: BT-549 breast

Compound: CCOC(=O)/C=C1\Oc2ccccc2C1(C)O (centres undefined)
- TGI (UO-31 renal): > 100 µM
- TGI (SW-620 colon): > 100 µM
- TGI (SNB-78 CNS): > 100 µM
- TGI (K-562 leukemia): > 100 µM
- TGI (HOP-92 NSCLC): > 100 µM
- TGI (NCI-H522 lung): > 100 µM
- TGI (SK-MEL-5 melanoma): > 100 µM
- TGI (UACC-257 melanoma): > 100 µM
- TGI (UACC-62 melanoma): > 100 µM
- TGI (M19-MEL melanoma): > 100 µM
- TGI (SF-295 CNS): > 100 µM
- TGI (786-0 renal): > 100 µM
- TGI (HT29 colon): > 100 µM
- TGI (LOX IMVI melanoma): > 100 µM
- TGI (HCT-15 colon): > 100 µM
- TGI (COLO 205 colon): > 100 µM
- TGI (ACHN renal): > 100 µM
- TGI (U251 CNS): > 100 µM
- TGI (M14 melanoma): > 100 µM
- TGI (DMS 273 small cell lung): > 100 µM
- TGI (LXFL 529 NSCLC): > 100 µM
- TGI (RPMI-8226 leukemia): > 100 µM
- TGI (SK-OV-3 ovarian): > 100 µM
- TGI (OVCAR-8 ovarian): > 100 µM
- TGI (SK-MEL-28 melanoma): > 100 µM
- TGI (OVCAR-3 ovarian): > 100 µM
- TGI (MOLT-4 leukemia): > 100 µM
- TGI (DLD-1 colon): > 100 µM
- TGI (OVCAR-5 ovarian): > 100 µM
- TGI (HCC-2998 colon): > 100 µM
- TGI (HOP-62 NSCLC): > 100 µM
- TGI (EKVX NSCLC): > 100 µM
- TGI (IGROV1 ovarian): > 100 µM
- TGI (MALME-3M melanoma): > 100 µM
- TGI (SN12C renal): > 100 µM
- TGI (DMS 114 small cell lung): > 100 µM
- TGI (HL-60(TB) leukemia): > 100 µM
- TGI (HOP-18 NSCLC): > 100 µM
- TGI (NCI-H460 lung): > 100 µM
- TGI (RXF 393 renal): > 100 µM
- TGI (NCI-H23 lung): > 100 µM
- TGI (KM20L2 colon): > 100 µM
- TGI (NCI-H226 lung): > 100 µM
- TGI (OVCAR-4 ovarian): > 100 µM
- TGI (A549 NSCLC): > 100 µM
- TGI (SF-268 CNS): > 100 µM
- TGI (SR leukemia): > 100 µM
- TGI (A498 renal): > 100 µM
- TGI (CCRF-CEM leukemia): > 100 µM
- TGI (SNB-19 CNS): > 100 µM
- TGI (TK-10 renal): > 100 µM
- TGI (KM12 colon): > 100 µM
- TGI (SNB-75 CNS): > 100 µM
- TGI (HCT-116 colon): > 100 µM
- TGI (CAKI-1 renal): > 100 µM
- TGI (SK-MEL-2 melanoma): > 100 µM

Compound: CC(C)c1cccc(C(C)C)c1NC(=O)C(=O)C1SC(=S)NC1=O (centres undefined)
- TGI (UO-31 renal): > 100 µM
- TGI (SW-620 colon): > 100 µM
- TGI (SNB-78 CNS): > 100 µM
- TGI (K-562 leukemia): > 100 µM
- TGI (HOP-92 NSCLC): > 100 µM
- TGI (NCI-H522 lung): > 100 µM
- TGI (SK-MEL-5 melanoma): > 100 µM
- TGI (UACC-257 melanoma): > 100 µM
- TGI (UACC-62 melanoma): > 100 µM
- TGI (M19-MEL melanoma): > 100 µM
- TGI (XF 498 CNS): > 100 µM
- TGI (SF-295 CNS): > 100 µM
- TGI (786-0 renal): > 100 µM
- TGI (HT29 colon): > 100 µM
- TGI (LOX IMVI melanoma): > 100 µM
- TGI (HCT-15 colon): > 100 µM
- TGI (COLO 205 colon): > 100 µM
- TGI (ACHN renal): > 100 µM
- TGI (U251 CNS): > 100 µM
- TGI (M14 melanoma): > 100 µM
- TGI (DMS 273 small cell lung): > 100 µM
- TGI (LXFL 529 NSCLC): > 100 µM
- TGI (RPMI-8226 leukemia): > 100 µM
- TGI (SK-OV-3 ovarian): > 100 µM
- TGI (OVCAR-8 ovarian): > 100 µM
- TGI (SK-MEL-28 melanoma): > 100 µM
- TGI (SF-539 CNS): > 100 µM
- TGI (MOLT-4 leukemia): > 100 µM
- TGI (DLD-1 colon): > 100 µM
- TGI (OVCAR-5 ovarian): > 100 µM
- TGI (HOP-62 NSCLC): > 100 µM
- TGI (EKVX NSCLC): > 100 µM
- TGI (IGROV1 ovarian): > 100 µM
- TGI (MALME-3M melanoma): > 100 µM
- TGI (SN12C renal): > 100 µM
- TGI (HL-60(TB) leukemia): > 100 µM
- TGI (HOP-18 NSCLC): > 100 µM
- TGI (NCI-H460 lung): > 100 µM
- TGI (RXF 393 renal): > 100 µM
- TGI (NCI-H23 lung): > 100 µM
- TGI (KM20L2 colon): > 100 µM
- TGI (RXF-631 renal): > 100 µM
- TGI (NCI-H226 lung): > 100 µM
- TGI (OVCAR-4 ovarian): > 100 µM
- TGI (A549 NSCLC): > 100 µM
- TGI (SF-268 CNS): > 100 µM
- TGI (SR leukemia): > 100 µM
- TGI (A498 renal): > 100 µM
- TGI (CCRF-CEM leukemia): > 100 µM
- TGI (SNB-19 CNS): > 100 µM
- TGI (TK-10 renal): > 100 µM
- TGI (KM12 colon): > 100 µM
- TGI (SNB-75 CNS): > 100 µM
- TGI (HCT-116 colon): > 100 µM
- TGI (CAKI-1 renal): > 100 µM
- TGI (SK-MEL-2 melanoma): > 100 µM

Compound: Oc1ccc(Cn2c(-c3ccc(O)cc3)nc3ccccc32)cc1
- TGI (UO-31 renal): > 100 µM
- TGI (SW-620 colon): > 100 µM
- TGI (K-562 leukemia): > 100 µM
- TGI (HOP-92 NSCLC): > 100 µM
- TGI (MDA-MB-435): > 100 µM
- TGI (MDA-N): > 100 µM
- TGI (NCI-H522 lung): > 100 µM
- TGI (SK-MEL-5 melanoma): > 100 µM
- TGI (UACC-257 melanoma): > 100 µM
- TGI (UACC-62 melanoma): > 100 µM
- TGI (M19-MEL melanoma): > 100 µM
- TGI (PC-3 prostate): > 100 µM
- TGI (XF 498 CNS): > 100 µM
- TGI (SF-295 CNS): > 100 µM
- TGI (786-0 renal): > 100 µM
- TGI (HT29 colon): > 100 µM
- TGI (DU-145 prostate): > 100 µM
- TGI (LOX IMVI melanoma): > 100 µM
- TGI (HCT-15 colon): > 100 µM
- TGI (COLO 205 colon): > 100 µM
- TGI (ACHN renal): > 100 µM
- TGI (U251 CNS): > 100 µM
- TGI (M14 melanoma): > 100 µM
- TGI (DMS 273 small cell lung): > 100 µM
- TGI (LXFL 529 NSCLC): > 100 µM
- TGI (RPMI-8226 leukemia): > 100 µM
- TGI (SK-OV-3 ovarian): > 100 µM
- TGI (OVCAR-8 ovarian): > 100 µM
- TGI (SK-MEL-28 melanoma): > 100 µM
- TGI (OVCAR-3 ovarian): > 100 µM
- TGI (SF-539 CNS): > 100 µM
- TGI (MOLT-4 leukemia): > 100 µM
- TGI (DLD-1 colon): > 100 µM
- TGI (OVCAR-5 ovarian): > 100 µM
- TGI (HCC-2998 colon): > 100 µM
- TGI (HOP-62 NSCLC): > 100 µM
- TGI (EKVX NSCLC): > 100 µM
- TGI (MCF7 breast): > 100 µM
- TGI (IGROV1 ovarian): > 100 µM
- TGI (MALME-3M melanoma): > 100 µM
- TGI (T-47D breast): > 100 µM
- TGI (SN12C renal): > 100 µM
- TGI (DMS 114 small cell lung): > 100 µM
- TGI (HL-60(TB) leukemia): > 31.6 µM
- TGI (NCI-H460 lung): > 100 µM
- TGI (RXF 393 renal): > 100 µM
- TGI (NCI-H23 lung): > 100 µM
- TGI (KM20L2 colon): > 100 µM
- TGI (RXF-631 renal): > 100 µM
- TGI (NCI-H226 lung): > 100 µM
- TGI (OVCAR-4 ovarian): > 100 µM
- TGI (MDA-MB-231 breast): > 100 µM
- TGI (A549 NSCLC): > 100 µM
- TGI (SF-268 CNS): > 100 µM
- TGI (SR leukemia): > 31.6 µM
- TGI (NCI/ADR-RES ovarian): > 100 µM
- TGI (HS 578T breast): > 100 µM
- TGI (A498 renal): > 100 µM
- TGI (CCRF-CEM leukemia): > 100 µM
- TGI (SNB-19 CNS): > 100 µM
- TGI (TK-10 renal): > 100 µM
- TGI (BT-549 breast): > 100 µM
- TGI (KM12 colon): > 100 µM
- TGI (SNB-75 CNS): > 100 µM
- TGI (HCT-116 colon): > 100 µM
- TGI (CAKI-1 renal): > 100 µM
- TGI (SK-MEL-2 melanoma): > 100 µM
